In patent publication EP4755892A1, “KINESIN KIF18A INHIBITOR AND USE THEREOF” (Shanghai Apeiron Therapeutics Company Limited, priority 2023, dated 2025):
pIC50: −log10 of the molar value. Like-named read-outs stand apart in the source and are kept apart here.

Key:
[1] = target: T1, Human KIF18A (amino acid sequence 1-417) (Homo sapiens, UniProt Q8NI77); assay: Enzymatic Activity Test (ADP-Glo, microtubule-stimulated KIF18A ATPase); assay type: biochemical; conditions: 60 µg/mL microtubules, 25 µM ATP, 2.5 nM KIF18A protein, 120 min at ambient temperature, chemiluminescence; read-out: KIF 18A IC50
T1 construct: purchased Viva Biotech (Shanghai) Ltd
T1 sequence (Q8NI77 1-417): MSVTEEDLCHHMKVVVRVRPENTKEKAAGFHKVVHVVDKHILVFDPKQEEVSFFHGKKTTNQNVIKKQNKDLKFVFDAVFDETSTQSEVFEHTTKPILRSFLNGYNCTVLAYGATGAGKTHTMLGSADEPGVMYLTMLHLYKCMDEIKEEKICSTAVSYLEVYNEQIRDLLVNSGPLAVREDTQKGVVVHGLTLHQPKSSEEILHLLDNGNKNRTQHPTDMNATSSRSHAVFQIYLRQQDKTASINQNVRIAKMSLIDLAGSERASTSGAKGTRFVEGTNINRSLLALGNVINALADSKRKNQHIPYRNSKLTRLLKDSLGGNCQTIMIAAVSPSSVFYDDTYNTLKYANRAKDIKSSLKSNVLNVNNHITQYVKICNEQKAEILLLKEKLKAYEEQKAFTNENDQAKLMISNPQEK
Description: Assay 1: Enzymatic Activity Test
Materials: Human KIF18A (amino acid sequence 1-417) was purchased from Viva Biotech (Shanghai) Ltd.; the ADP-Glo™ protein kinase kit was acquired from Promega, USA; tubulin was sourced from Cytoskeleton, USA; and the 384-well assay plate and Envision multifunctional microplate reader were obtained from PerkinElmer, USA.
Enzymatic Activity Test: The compound powder was dissolved in DMSO to prepare a stock solution of 10 mM. Then gradient dilution was performed for the compounds in the microplate to achieve a final concentration of 0-10 µM. Then, 2.5 µL each of tubulin, compound, ATP, and KIF18A protein were added to the microplate in sequence for reaction at ambient temperature for 120 min. The final concentrations in the enzyme reaction were 60 µg/mL for microtubules, 25 µM for ATP, and 2.5 nM for KIF18A protein. After the enzyme reaction, 10 µL of ADP-GLO reaction reagent was added to each well and incubated at room temperature for 30 min. After that, 20 µL of detection reagent was added to each well and incubated at room temperature for 30 min in the dark. Finally, chemiluminescence detection was performed using the PerkinElmer Envision.

HT29 cells = assay: CyQuant Cell Proliferation Activity Test, HT29; assay type: cell-based; conditions: HT29 cells 2000 per well, initial concentration 3000 nM, 3-fold dilution, 3 days, 0.2% DMSO, read-out: HT29_IC50 _nM
Description: Assay 3: CyQuant Cell Proliferation Activity Test
Materials and Cells: HT29 cells were purchased from Nanjing Cobioer Biosciences Co., Ltd.; RPMI-1640 medium, fetal bovine serum, Trypsin-EDTA (0.25%), 96-well plates, and CyQuant reagents were purchased from ThermoFisher (USA); DMSO was purchased from SIGMA (USA).
Cell Culture: HT29 cells were cultured with RPMI-1640 containing 10% fetal bovine serum under the condition of 37°C and 5% CO2. Only cells in the logarithmic growth phase could be used for the test.
Cell Proliferation Activity Test: CyQuant reagent was used to detect the proliferation inhibitory activity of compounds on HT29 cells. The cell density was adjusted, and 100 µL per well was inoculated into a 96-well plate (HT29 at 2000 cells per well), then incubated overnight at 37°C and 5% CO2. Add compounds of various target concentrations (initial concentration of 3000 nM, 3-fold dilution, 9 concentration gradients), and make the DMSO content 0.2%. The cell plate was incubated at 37°C in 5% CO2 for 3 days. CyQuant reagent was added and incubated for 1 h. The plates were read by Envision, and IC50 was calculated using XLFIT.

OVCAR3 cells = assay: Cell Proliferation Activity Test (CyQUANT Direct), OVCAR3; assay type: cell-based; conditions: compound 0-10 µM, 3 days, 0.2% DMSO, CyQUANT fluorescence, read-out: OVCAR-3 _IC50_nM
Description: Assay 2: Cell Proliferation Activity Test
Materials and Cells: OVCAR3 cells were purchased from Nanjing Cobioer Biosciences Co., Ltd. RPMI-1640 medium, fetal bovine serum, and the CyQUANT Direct Cell Proliferation Assay kit were purchased from Thermo Fisher Scientific, USA; 96-well cell culture plates were sourced from Coming, USA.
Cell Culture: OVCAR3 cells were cultured with RPMI-1640 medium containing 10% fetal bovine serum and incubated in a 5% CO2 incubator at 37°C. Only cells in the logarithmic growth phase could be used for the test.
Cell Proliferation Activity Test:
OVCAR3 cells were inoculated into a 96-well cell culture plate at 90 µL per well and incubated overnight in a 5% CO2 incubator at 37°C. The compound powder was dissolved in DMSO to prepare a stock solution of 10 mM. Then gradient dilution was performed for the compounds in the microplate to achieve a final concentration of 0-10 µM. 10 µL of cell culture medium containing compounds was added to each well to make the final DMSO content 0.2%. The cell plates were incubated in a 5% CO2 incubator at 37°C for 3 days. 100 µL of CyQUANT detection reagent was added to each well, reacted at 37°C for 60 min, and fluorescence detection was performed using the PerkinElmer Envision.

| Structure (SMILES) | pIC50 [1] | pIC50 (HT29 cells) | pIC50 (OVCAR3 cells) | pIC50 (HT29 cells; Homo sapiens, HT-29, 72 h) | pIC50 (OVCAR3 cells; Homo sapiens, OVCAR-3, 72 h) |
| --- | --- | --- | --- | --- | --- |
| Cc1cc2nc(n1)N1CCC(F)(F)C(CC=CC3CCN(CC3)c3cc(NS(=O)(=O)CCO)ccc3C(=O)N2)C1 (stereo not drawn) [Example 19, (E)-N-(1^4,1^4-difluoro-2^6-methyl-4-oxo-3-aza-2(2,4)-pyrimidin-1(1,3),6(1,4)-dipiperidin-5(1,2)-benzeneheterocyclonon-7-en-5^4-yl)-2-hydroxyethane-1-sulfonamide] | 6.74 |  |  | 6.19 | 6.15 |
| Cc1cc2nc(n1)N1CCC(F)(F)C(CCC=C3CCN(CC3)c3cc(NS(=O)(=O)CCO)ccc3C(=O)N2)C1 (stereo not drawn) [Example 20, N-(1^4,1^4-difluoro-2^6-methyl-4-oxo-3-aza-2(2,4)-pyrimidin-1(1,3),6(1,4)-dipiperidin-5(1,2)-benzeneheterocyclononane-5^4-yl)-2-hydroxyethane-1-sulfonamide] | 5.54 |  |  | < 5.52 | < 5.52 |
| Cc1cc2nc(n1)N1CCC(F)(F)C(=CCCC3CCN(CC3)c3cc(NS(=O)(=O)CCO)ccc3C(=O)N2)C1 [Example 21, N-(1^4,1^4-difluoro-2^6-methyl-4-oxo-3-aza-2(2,4)-pyrimidin-1(1,3),6(1,4)-dipiperidin-5(1,2)-benzeneheterocyclonon-9-en-5^4-yl)-2-hydroxyethane-1-sulfonamide] | 6.52 |  |  | 6.15 | 6.13 |
| Cc1cc2nc(n1)N1CCC(F)(F)C(CCCC3CCN(CC3)c3cc(NS(=O)(=O)CCO)ccc3C(=O)N2)C1 (stereo not drawn) [Example 23, N-(1^4,1^4-difluoro-2^6-methyl-4-oxo-3-aza-2(2,4)-pyrimidin-1(1,3),6(1,4)-dipiperidin-5(1,2)-benzeneheterocyclononane-5^4-yl)-2-hydroxyethane-1-sulfonamide] | 6.99 | 7.33 | 7.28 |  |  |
| COc1cc2nc(n1)N1CCC(F)(F)C(C=CCC3CCN(CC3)c3cc(NS(=O)(=O)CCO)ccc3C(=O)N2)C1 (stereo not drawn) [Example 24, (Z)-N-(1^4,1^4-difluoro-2^6-methoxy-4-oxo-3-aza-2(2,4)-pyrimidin-1(1,3),6(1,4)-dipiperidin-5(1,2)-benzeneheterocyclonon-8-en-5^4-yl)-2-hydroxyethane-1-sulfonamide] | 6.80 |  |  | 7.20 | 7.34 |
| Cc1cc2nc(n1)N1CCOC(C=CCC3CCN(CC3)c3cc(NS(=O)(=O)CCO)ccc3C(=O)N2)C1 (stereo not drawn) [Example 25, 2-Hydroxy-N-((1^2S)-2^6-methyl-4-oxo-3-aza-1(4,2)-morpholin-2(2,4)-pyrimidin-6(1,4)-piperidin-5(1,2)-benzeneheterocyclonon-8-en-5^4-yl)ethane-1-sulfonamide] | 7.89 |  |  | 7.96 | 8.07 |
| Cc1cc2nc(n1)N1CCCC(C1)C(=O)NCC1CCN(CC1)c1cc(NS(=O)(=O)CCO)ccc1C(=O)N2 (stereo not drawn) [Example 27, N-(2^6-methyl-4,9-dioxo-3,8-diaza-2(2,4)-pyrimidin-1(1,3),6(1,4)-dipiperidin-5(1,2) -benzeneheterocyclononane-5^4-yl)-2-hydroxyethane-1-sulfonamide] | 6.58 |  |  | < 5.52 | 5.83 |
| Cc1cc2nc(n1)N1CCCC(COCC3CCN(CC3)c3cc(NS(=O)(=O)CCO)ccc3C(=O)N2)C1 (stereo not drawn) [Example 28, 2-Hydroxy-N-(2^6-methyl-4-oxo-8-oxa-3-aza-2(2,4)-pyrimidin-1(1,3),6(1,4)-dipiperidin-5(1,2)-benzeneheterocyclononane-5^4-yl)ethane-1-sulfonamide] | 6.64 |  |  | 6.19 | 6.30 |

Now from value to compound:

| pIC50 [1] | pIC50 (HT29 cells) | pIC50 (OVCAR3 cells) | pIC50 (HT29 cells; Homo sapiens, HT-29, 72 h) | pIC50 (OVCAR3 cells; Homo sapiens, OVCAR-3, 72 h) | Structure (SMILES) |
| --- | --- | --- | --- | --- | --- |
| 6.46 | 6.18 | 6.34 |  |  | Cc1cc2nc(n1)N1CCC(F)(F)C(C=CCC3CCN(CC3)c3cc(NS(=O)(=O)CCO)ccc3C(=O)N2)C1 (stereo not drawn) [Example 18D, N-((1^3R,Z)-1^4,1^4-difluoro-2^6-methyl-4-oxo-3-aza-2(2,4)-pyrimidin-1(1,3),6(1,4)-dipiperidin-5(1,2)-benzeneheterocyclononane-8-en-5^4-yl)-2-hydroxyethane-1-sulfon amide] |
| 6.28 | 6.16 | 6.18 |  |  | Cc1cc2nc(n1)N1CCC(F)(F)C(CCCC3CCN(CC3)c3cc(NS(=O)(=O)CCO)ccc3C(=O)N2)C1 (stereo not drawn) [Example 23A, N-((1^3S)-1^4,1^4-difluoro-2^6-methyl-4-oxo-3-aza-2(2,4)-pyrimidin-1(1,3),6(1,4)-dipiperidin-5(1,2)-benzeneheterocyclononane-5^4-yl)-2-hydroxyethane-1-sulfonamide] |
| 7.15 | 7.49 | 7.55 |  |  | Cc1cc2nc(n1)N1CCC(F)(F)C(CCCC3CCN(CC3)c3cc(NS(=O)(=O)CCO)ccc3C(=O)N2)C1 (stereo not drawn) [Example 23B, N-((1^3R)-1^4,1^4-difluoro-2^6-methyl-4-oxo-3-aza-2(2,4)-pyrimidin-1(1,3),6(1,4)-dipiperidin-5(1,2)-benzeneheterocyclononane-5^4-yl)-2-hydroxyethane-1-sulfonamide] |
